Laboratory results published in patent publication US9409961B2, “Cell penetrating peptides to target EIF4E” (Hoffmann-La Roche Inc., priority 2012, dated 2016).
Square brackets hold non-standard residues; d marks the D form. Peptide text beside a SMILES is read from it. Nle = CCCC[C@H](N)C(=O)O

What follows are molecules tested against T1, human eIF4E (Homo sapiens, UniProt P06730) (assay: biochemical assay of peptide binding to human eIF4E (displacement of biotin labeled 4G2 peptide)). Settings: HH-eIF4E, biotin labeled 4G2 peptide; read-out: Binding affinities expressed as IC50.
T1 construct: made in house
Procedure: A biochemical assay was run to test peptide binding to human eIF4E.
Human eIF4E (aa 28-217, SEQ ID NO: 87) with a C-terminal His tag (HH-eIF4E, SEQ ID NO: 88) was expressed in E. coli in inclusion bodies. The protein was solubilized with 8 M urea and purified under denaturing conditions using nickel-charged HisTrap HP columns (GE Healthcare). The protein was refolded by diluting to approximately 0.25 mg/mL with 6 M urea, 20 mM Hepes pH 7.0, 500 mM NaCl, 1 mM DTT, 1 mM EDTA, and 0.5 M arginine.HCl, and then dialyzing overnight into the same buffer without the urea. The protein was further dialyzed into 20 mM Hepes pH 6.5, 50 mM NaCl, 1 mM EDTA, and 1 mM DTT, filtered, and then concentrated using Hitrap SP sepharose FF columns (GE Healthcare). The protein was dialyzed into 20 mM Hepes pH 7.0, 500 mM NaCl, 5 mM DTT, and 10% glycerol and stored at −80° C. until use.
Test peptides (1.6 mM stock in DMSO) were diluted 3 fold in series in DMSO and solutions were diluted 4 fold in Assay Buffer (50 mM NaPi, pH 6.5, 50 mM KCl, 1 mM DTT, 0.004% NP40 and 0.5 mg/ml gammaglobulin). Six microliters per well of diluted peptide solutions and 12 microliters per well of 187.5 nM HH-eIF4E in Assay Buffer were added to 384-well polypropylene microplates (Matrix, Thermal Scientific). Twelve microliters per well of 187.5 nM biotin labeled 4G2 peptide (Ac-[…]Aha-Bio)-NH2 (SEQ ID NO: 91) 1:2 TFA) in Assay Buffer was added. The samples were incubated at room temperature for 20 minutes.
Six microliters per well of 4.8 nM Eu-streptavidin (Columbia Biosciences) and 48 nM Allophycocyanin-anti His antibody (Columbia Biosciences) in Assay Buffer (without DTT) were then added and the samples were incubated at room temperature for 30 min. Assay signals were monitored by reading emission fluorescence at 665 nm on an Envision Reader (PerkinElmer Life and Analytical Sciences). IC50 values were calculated using Condoseo software (Genedata AG, Basel, Switzerland).

T1 sequence (P06730 with tags, fused parts or gaps): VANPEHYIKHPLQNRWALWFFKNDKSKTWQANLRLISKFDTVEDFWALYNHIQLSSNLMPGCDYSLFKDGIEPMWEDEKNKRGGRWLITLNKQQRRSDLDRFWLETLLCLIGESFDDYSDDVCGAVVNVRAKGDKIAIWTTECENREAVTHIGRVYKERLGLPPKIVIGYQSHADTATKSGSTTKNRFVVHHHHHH

In the case of CCCC[C@H](NC(=O)[C@H](Cc1ccccc1)NC(=O)[C@H](CCC(N)=O)NC(=O)[C@H](Cc1ccccc1)NC(=O)[C@H](C)NC(=O)[C@H](CC(C)C)NC(=O)[C@H](CC(C)C)NC(=O)[C@H](Cc1ccccc1)NC(=O)[C@H](CCC(=O)O)NC(=O)[C@H](CCCNC(=N)N)NC(=O)[C@H](CC(=O)O)NC(=O)[C@H](Cc1ccc(O)cc1)NC(=O)[C@H](CCCNC(=N)N)NC(=O)[C@H](CCCCN)NC(C)=O)C(=O)N[C@H](C(=O)N[C@@H](Cc1ccc(O)cc1)C(=O)N[C@@H](CC(=O)O)C(=O)N[C@@H](CC(C)C)C(=O)NCC(=O)N[C@@H](CC(C)C)C(=O)N[C@@H](CCCNC(=N)N)C(=O)N[C@@H](CCCNC(=N)N)C(=O)N[C@@H](CC(C)C)C(=O)N[C@@H](CCCNC(=N)N)C(=O)N[C@@H](CCC(N)=O)C(=O)N[C@@H](CCCNC(=N)N)C(=O)N[C@@H](CCCNC(=N)N)C(=O)N[C@@H](CCCNC(=N)N)C(=O)N[C@@H](CC(C)C)C(=O)N[C@@H](CCCNC(=N)N)C(=O)N[C@@H](CCCNC(=N)N)C(N)=O)C(C)C [SEQ ID NO: 7] (Ac-KRYDREFLLAFQF[Nle]VYDLGLRRLRQRRRLRR-NH2), the IC50 is reported as 0.21 µM.

Same assay, conditions: IC50 (μM), Table 2, cell-penetrating peptides with the Y----LL-F motif

Compared with “Ac-MANLGYWLLALFVYMWTDLLLFKKRPKP-NH2 [SEQ ID NO: 16]”, “Ac-MVKSKIYSWILLLFFAMWSDVKLKKKRPKP-NH2 [SEQ ID NO: 21]” is 2.3-fold higher in IC50: 3.03 µM for the first, 6.85 µM for the second.

First: Ac-MYKSKILLWFLVLFVAMWSDVGLCKKRPKP-NH2 [SEQ ID NO: 14]
Second: Ac-MVKYKIASLLLFLFVAMWSDVKLKKKRPKP-NH2 [SEQ ID NO: 18]
The IC50 of the first is 1.9-fold lower: 3.62 µM for the first, 6.71 µM for the second. The first is the more potent here.

First: Ac-MVKYKIGSLLLFLFVAMWSDVGLCKKRPKP-NH2 [SEQ ID NO: 12]
Second: Ac-MVKSKYGSWILLLFVAMWSDVGLCKKRPKP-NH2 [SEQ ID NO: 13]
The IC50 of the first is 1.7-fold lower: 4.13 µM for the first, 6.89 µM for the second.

Work on “Ac-MVKSKIYSWILLLFFAMWSDVGLCKKRPKP-NH2 [SEQ ID NO: 15]” yielded an IC50 of 5.2 µM.

Same assay, conditions: IC50 (μM), Table 2a, cell penetrating peptides with the Y----LL-F and YWLLALFVY motifs

“Ac-YWLLALFVYMWTDLRLFKKRPKP-NH2 [SEQ ID NO: 37]” and “Ac-MANLAYWLLALFVYMFTDLRLFKKRPKP-NH2 [SEQ ID NO: 42]” are within 1.5-fold of each other in IC50: 2.9 µM for the first, 3.91 µM for the second.

Compared with “Ac-MAALAYWLLALFVYMWTDLLLFKKRPKP-NH2 [SEQ ID NO: 27]”, “Ac-ANLAYWLLALFVYMWTDLRLFKKRPKP-NH2 [SEQ ID NO: 34]” is 4.8-fold lower in IC50: 10.7 µM for the first, 2.22 µM for the second.

“Ac-NLAYWLLALFVYMWTDLRLFKKRPKP-NH2 [SEQ ID NO: 35]” and CCCC[C@H](NC(=O)[C@H](CC(C)C)NC(=O)[C@H](CC(=O)O)NC(=O)[C@@H](NC(=O)[C@H](Cc1c[nH]c2ccccc12)NC(=O)[C@H](CCSC)NC(=O)[C@H](Cc1ccc(O)cc1)NC(=O)[C@@H](NC(=O)[C@H](Cc1ccccc1)NC(=O)[C@H](CC(C)C)NC(=O)[C@H](C)NC(=O)[C@H](CC(C)C)NC(=O)[C@H](CC(C)C)NC(=O)[C@H](Cc1c[nH]c2ccccc12)NC(=O)[C@H](Cc1ccc(O)cc1)NC(=O)[C@H](CCCCN)NC(=O)[C@H](CC(C)C)NC(=O)[C@H](CCCCN)NC(=O)[C@H](C)NC(=O)[C@H](CCSC)NC(C)=O)C(C)C)[C@@H](C)O)C(=O)N[C@@H](CC(C)C)C(=O)N[C@@H](Cc1ccccc1)C(=O)N[C@@H](CCCCN)C(=O)N[C@@H](CCCCN)C(=O)N[C@@H](CCCNC(=N)N)C(=O)N1CCC[C@H]1C(=O)N[C@@H](CCCCN)C(=O)N1CCC[C@H]1C(N)=O [SEQ ID NO: 29] (Ac-MAKLKYWLLALFVYMWTDL[Nle]LFKKRPKP-NH2) are within 1.5-fold of each other in IC50: 5.04 µM for the first, 7.39 µM for the second.

“Ac-LAYWLLALFVYMWTDLRLFKKRPKP-NH2 [SEQ ID NO: 31]” and “Ac-LAYWLLALFVYMWTDLRLAKKRPKP-NH2 [SEQ ID NO: 33]” are within 1.5-fold of each other in IC50: 4.35 µM for the first, 6.24 µM for the second.

“Ac-MANLAYWLLALFVYLWTDLRLFKKRPKP-NH2 [SEQ ID NO: 38]” and “Ac-AYWLLALFVYMWTDLRLFKKRPKP-NH2 [SEQ ID NO: 36]” are within 1.5-fold of each other in IC50: 3.04 µM for the first, 2.53 µM for the second.

Compared with CCCC[C@H](NC(=O)[C@H](Cc1ccc(O)cc1)NC(=O)[C@@H](NC(=O)[C@H](Cc1ccccc1)NC(=O)[C@H](CC(C)C)NC(=O)[C@H](C)NC(=O)[C@H](CC(C)C)NC(=O)[C@H](CC(C)C)NC(=O)[C@H](Cc1c[nH]c2ccccc12)NC(=O)[C@H](Cc1ccc(O)cc1)NC(=O)[C@H](C)NC(=O)[C@H](CC(C)C)NC(=O)[C@H](CC(N)=O)NC(=O)[C@H](C)NC(=O)[C@H](CCSC)NC(C)=O)C(C)C)C(=O)N[C@@H](Cc1c[nH]c2ccccc12)C(=O)N[C@H](C(=O)N[C@@H](CC(=O)O)C(=O)N[C@@H](CC(C)C)C(=O)N[C@@H](CCCNC(=N)N)C(=O)N[C@@H](CC(C)C)C(=O)N[C@@H](Cc1ccccc1)C(=O)N[C@@H](CCCCN)C(=O)N[C@@H](CCCCN)C(=O)N[C@@H](CCCNC(=N)N)C(=O)N1CCC[C@H]1C(=O)N[C@@H](CCCCN)C(=O)N1CCC[C@H]1C(N)=O)[C@@H](C)O [SEQ ID NO: 39] (Ac-MANLAYWLLALFVY[Nle]WTDLRLFKKRPKP-NH2), CCCC[C@H](NC(=O)[C@H](CC(C)C)NC(=O)[C@H](CC(=O)O)NC(=O)[C@@H](NC(=O)[C@H](Cc1c[nH]c2ccccc12)NC(=O)[C@H](CCSC)NC(=O)[C@H](Cc1ccc(O)cc1)NC(=O)[C@@H](NC(=O)[C@H](Cc1ccccc1)NC(=O)[C@H](CC(C)C)NC(=O)[C@H](C)NC(=O)[C@H](CC(C)C)NC(=O)[C@H](CC(C)C)NC(=O)[C@H](Cc1c[nH]c2ccccc12)NC(=O)[C@H](Cc1ccc(O)cc1)NC(=O)[C@H](C)NC(=O)[C@H](CC(C)C)NC(=O)[C@H](C)NC(=O)[C@H](C)NC(=O)[C@H](CCSC)NC(C)=O)C(C)C)[C@@H](C)O)C(=O)N[C@@H](CC(C)C)C(=O)N[C@@H](Cc1ccccc1)C(=O)N[C@@H](CCCCN)C(=O)N[C@@H](CCCCN)C(=O)N[C@@H](CCCNC(=N)N)C(=O)N1CCC[C@H]1C(=O)N[C@@H](CCCCN)C(=O)N1CCC[C@H]1C(N)=O [SEQ ID NO: 28] (Ac-MAALAYWLLALFVYMWTDL[Nle]LFKKRPKP-NH2) is 2.6-fold higher in IC50: 1.75 µM for the first, 4.59 µM for the second.

Same assay, conditions: IC50 (μM), Table 3, cell-penetrating peptides without the Y----LL-F motif

“Ac-LLALFVYMWTDLRLFKKRPKP-NH2 [SEQ ID NO: 51]” and CCCC[C@H](NC(=O)[C@H](CC(C)C)NC(=O)[C@H](CO)NC(=O)[C@H](C)NC(=O)[C@@H](NC(=O)[C@H](CCCCN)NC(=O)[C@H](Cc1ccc(O)cc1)NC(=O)[C@H](CCCCN)NC(=O)[C@@H](NC(=O)[C@H](CCSC)NC(C)=O)C(C)C)[C@@H](C)CC)C(=O)N[C@@H](CC(C)C)C(=O)N[C@@H](Cc1ccccc1)C(=O)N[C@@H](CC(C)C)C(=O)N[C@@H](Cc1ccccc1)C(=O)N[C@H](C(=O)N[C@@H](C)C(=O)N[C@@H](CCSC)C(=O)N[C@@H](Cc1c[nH]c2ccccc12)C(=O)N[C@@H](CO)C(=O)N[C@@H](CC(=O)O)C(=O)N[C@H](C(=O)N[C@@H](C)C(=O)N[C@@H](CC(C)C)C(=O)N[C@@H](C)C(=O)N[C@@H](CCCCN)C(=O)N[C@@H](CCCCN)C(=O)N[C@@H](CCCNC(=N)N)C(=O)N1CCC[C@H]1C(=O)N[C@@H](CCCCN)C(=O)N1CCC[C@H]1C(N)=O)C(C)C)C(C)C [SEQ ID NO: 45] (Ac-MVKYKIASL[Nle]LFLFVAMWSDVALAKKRPKP-NH2) are within 1.5-fold of each other in IC50: 3.75 µM for the first, 3.06 µM for the second.

“Ac-LAYWLLALFVAMWTDLRLFKKRPKP-NH2 [SEQ ID NO: 49]” and “Ac-WLLALFVYMWTDLRLFKKRPKP-NH2 [SEQ ID NO: 50]” are within 1.5-fold of each other in IC50: 1.99 µM for the first, 2.36 µM for the second.

Same assay, conditions: Table 1, peptides which bind eIF4E but are not cell-penetrating; read-out: IC50

Going from Ac-KQYDREFLLDFQFMPA-NH2 [SEQ ID NO: 52] to CCCC[C@H](NC(=O)[C@H](Cc1ccccc1)NC(=O)[C@H](CCC(N)=O)NC(=O)[C@H](Cc1ccccc1)NC(=O)[C@H](C)NC(=O)[C@H](CC(C)C)NC(=O)[C@H](CC(C)C)NC(=O)[C@H](Cc1ccccc1)NC(=O)[C@H](CCC(=O)O)NC(=O)[C@H](CCCNC(=N)N)NC(=O)[C@H](CC(=O)O)NC(=O)[C@H](Cc1ccccc1)NC(=O)[C@H](CCCNC(=N)N)NC(=O)[C@H](CCCCN)NC(C)=O)C(N)=O [SEQ ID NO: 84] (Ac-KRFDREFLLAFQF[Nle]-NH2), the IC50 falls from 10.5 µM to 4.07 µM (2.6-fold). The second is the more potent here.

Same assay, conditions: Table 2, cell-penetrating peptides with the Y----LL-F motif; read-out: IC50

Work on “Ac-GAAEAAAYVYDLLLRFLRQRRRLRRERVRA-NH2 [SEQ ID NO: 25]” yielded an IC50 of 11 µM.
